Laboratory results published in publication PMC3275370 (The Journal of Cell Biology, 2012).

What was measured:
[1] = system: NS1; format: cell-based, influenza virus
[2] = system: A/WSN/1933; format: cell-based, influenza virus
[3] = system: VSV-GFP (Indiana strain); format: cell-based, vesicular stomatitis virus
[4] = system: HBECs; assay: Measurements of cellular UMP, UDP and UTP levels by LC-MS/MS; format: cell-based, human; conditions: HBECs treated with compound
[5] = system: mRNA export block; format: cell-based
[6] = system: VSV M protein; format: cell-based, vesicular stomatitis virus
[7] = system: MDCK cells

Structure (SMILES)	reversal of NS1 inhibition of host gene expression (luciferase activity) [1]	influenza virus replication [2]	VSV replication [3]	UMP and UDP pools [4]	UTP levels [4]	NS1-mediated mRNA export block in absence of virus [5]	poly(A)+ RNA distribution in influenza virus-infected cells [5]	inhibition of gene expression by M protein [6]	cytotoxicity [7]	antiviral effect on influenza virus [2]	antiviral effect on VSV [3]
O=C(O)c1cc(-c2ccc(Oc3ccccc3)cc2)nc2ccc(F)cc12 [Compound 1-14, 6-fluoro-2-(4-phenoxyphenyl)quinoline-4-carboxylic acid]	reverted	virus replication was inhibited	down-regulated	down-regulated to a lesser extent	reduced UTP levels	released	normal distribution of mRNA in the nucleus and in the cytoplasm	reverted	not cytotoxic		
Cc1ccc(-c2cc(C(=O)O)c3cc(Cl)ccc3n2)cc1 [Compound 1-10, 6-chloro-2-p-tolylquinoline-4-carboxylic acid]										no antiviral effect	no antiviral effect
CCOc1ccc(-c2cc(C(=O)O)c3cc(Cl)ccc3n2)cc1 [Compound 1, 6-chloro-2-(4-ethoxyphenyl)quinoline-4-carboxylic acid]	reverted the inhibition of host gene expression by NS1						normal distribution of mRNA in the nucleus and in the cytoplasm				
